Experimental data from US20190119284A1, “ErbB Inhibitors and Uses Thereof” (The Regents of the University of California, priority 2016, published 2019).

Key:
[1] = tested on: HER2/HER3 signaling in CW-2 cells (HER3 E928G); assay: HER2/HER3 signaling in CW-2 cells +/- NRG, 1 h; assay type: cell-based; conditions: CW-2, dose response
[2] = tested on: 2YFTM/HER3wt and 2YFTM/3TM Ba/F3 cells; assay: Ba/F3 proliferation assay, HER2 gatekeeper mutant lines; assay type: cell-based; conditions: Ba/F3 lines with methionine gatekeeper mutation in HER2
Experimental: Proliferation Assays. […] For all normalized assays, proliferation was normalized to the DMSO control condition. All graphs were plotted in GraphPad Prism 6 and fit with a non-linear regression of the log(inhibitor) vs response with a variable slope where shown. All graphs are averages (+/−standard deviation) of biological triplicates each performed in technical triplicate unless otherwise noted. If only one biological replicate was performed standard deviations were derived from the technical replicates.

[3] = biological target: MAPK1 (Homo sapiens, UniProt P28482); assay: Nanosyn in vitro kinase profiling: MAPK1; assay type: biochemical; conditions: compound at 1 μM
[4] = biological target: CDK1 (Homo sapiens, UniProt P06493); assay: Nanosyn in vitro kinase profiling: CDK1; assay type: biochemical; conditions: compound at 1 μM
[5] = tested on: HER2/HER3 signaling in FaDu cells; assay: HER2/HER3 signaling in FaDu cells, 24 h; assay type: cell-based; conditions: dose response 24 h, compared with lapatinib
Excerpt: (§1) FIGS. 20A-20B. […] FIG. 20A. […] FIG. 20B.

[6] = biological target: T1, EGFR gatekeeper to methionine mutant in NCI-H1975 cells (Homo sapiens, UniProt P00533, L858R/T790M); assay: EGFR signaling and proliferation in NCI-H1975 cells; assay type: cell-based
T1 construct: mutation of the EGFR gatekeeper to methionine in NCI-H1975 cells; endogenous in cells; host or cells: NCI-H1975

[7] = tested on: CHL-1 cells; assay: growth of CHL-1 cells over 96 h (IncuCyte Zoom confluence); assay type: cell-based; conditions: CHL-1, 96 h, compared with lapatinib
[8] = biological target: mutationally activated forms of EGFR (Homo sapiens, UniProt P00533, DEL746-750); assay: EGFR phosphosite signaling in NCI-H1650 cells; assay type: cell-based; set-up: endogenous in cells; host or cells: NCI-H1650 (A2); conditions: concentration giving near complete inhibition
[9] = tested on: FaDu cells; assay: 72 h proliferation of FaDu cells; assay type: cell-based
Excerpt: as §1

[10] = biological target: T2, HER3 kinase domain (Homo sapiens, UniProt P21860); assay: HER3 Thermofluor Assay; assay type: binding; conditions: 20 μM inhibitor
T2 construct: added to 19 μL of the HER3 kinase domain in reaction buffer; made in house; host or cells: baculovirus/insect cells (inferred from the pFastBac plasmid)
Experimental: HER3 Thermofluor Assay. The HER3 gatekeeper mutation (T787M) was introduced into the HER3 tyrosine kinase domain in the pFastBac plasmid using standard protocols. Both wt and T787M HER3 were purified according to the previously published protocols. Thermofluor reactions were performed in duplicate and set up as follows. 1 μL of an inhibitor or DMSO dilution in 40% DMSO:water was added to 19 μL of the HER3 kinase domain in reaction buffer. The final reaction solution contained 100 mM MOPS, 200 mM NaCl, 5% glycerol, 5 mM MgCl2, 0.1 mM DTT, 5× SYPRO orange, 2 μM kinase, 2% DMSO and 20 μM inhibitor in the wells of a 96-well, low profile, white, PCR plate (USA scientific). The solution was pipetted up and down to mix, sealed with TempAssure clear PCR flat caps (USA Scientific), centrifuged at 500×g for 30 s, and heated in a Stratagene Mx3005P RT-PCR machine from 25° C. to 95° C. in 0.5° C. increments every 30 s after an initial incubation at 25° C. for 10 min. Fluorescence was measured at the end of each 30 s period with an excitation wavelength of 492 nm and an emission wavelength of 610 nm. […] Values after the well had reached a maximum signal were discarded and the signals were fit to the Boltzmann equation in Graphpad Prism 6. ΔTm was calculated as the difference in melting temperature between the compound treated kinase compared to the DMSO control.

[11] = biological target: T3, HER2 kinase domain (Homo sapiens, UniProt P04626); assay: In vitro HER2 Kinase Assay; assay type: biochemical; conditions: 50 μM ATP
T3 construct: In vitro kinase assays with the HER2 kinase domain (SignalChem) were performed in triplicate; purchased SignalChem
Experimental: In vitro HER2 Kinase Assay. In vitro kinase assays with the HER2 kinase domain (SignalChem) were performed in triplicate as follows. To 9 μL of a 2.5× solution of kinase and substrate in reaction buffer was added 3 μL of a 5× DMSO or inhibitor dilution in 10% DMSO:water. The inhibitor/kinase solution was incubated at room temperature for 10 minutes. The kinase assay was initiated by the addition of 3 μL of a 5× solution of ATP, and ran for 15 minutes. The final reaction conditions were 50 mM Tris (pH7.4), 5 mM MnCl2, 0.01% Tween-20, 2 mM DTT, 100 μM E4Y substrate (SignalChem), 15 nM HER2, 2% DMSO, 50 μM ATP, and 1 μCi γ^32P-ATP. After 15 minutes, 3 μL of each reaction was pipetted onto phosphocellulose sheets (P81, Whatman) and allowed to dry. The sheets were then washed 4×5 min with a solution of 0.5% phosphoric acid, dried, and exposed to a phosphor screen overnight. Phosphorimaging was conducted on a Typhoon 9500, image intensities were quantified in ImageQuant 5.2, normalized to the DMSO control and plotted in GraphPad Prism 6.

[12] = biological target: P70S6K1 (Homo sapiens, UniProt P23443); assay: Nanosyn in vitro kinase profiling: P70S6K1; assay type: biochemical
Experimental: This was confirmed by in vitro profiling against a panel of kinases, with compound 2 only showing potent inhibition of EGFR and Ab1 (Table 2).
In vitro Kinome Screen. In vitro profiling of compound 2 at 100 nM was conducted by Nanosyn.

[13] = tested on: wt HER2 or HER2 T798M; assay: HEK-293T cells transfected with wt HER2 or HER2 T798M; assay type: cell-based; conditions: HER2 T798M vs wt, 1 nM-10 μM

T1 sequence (P00533 25-1210 T790M/L858R): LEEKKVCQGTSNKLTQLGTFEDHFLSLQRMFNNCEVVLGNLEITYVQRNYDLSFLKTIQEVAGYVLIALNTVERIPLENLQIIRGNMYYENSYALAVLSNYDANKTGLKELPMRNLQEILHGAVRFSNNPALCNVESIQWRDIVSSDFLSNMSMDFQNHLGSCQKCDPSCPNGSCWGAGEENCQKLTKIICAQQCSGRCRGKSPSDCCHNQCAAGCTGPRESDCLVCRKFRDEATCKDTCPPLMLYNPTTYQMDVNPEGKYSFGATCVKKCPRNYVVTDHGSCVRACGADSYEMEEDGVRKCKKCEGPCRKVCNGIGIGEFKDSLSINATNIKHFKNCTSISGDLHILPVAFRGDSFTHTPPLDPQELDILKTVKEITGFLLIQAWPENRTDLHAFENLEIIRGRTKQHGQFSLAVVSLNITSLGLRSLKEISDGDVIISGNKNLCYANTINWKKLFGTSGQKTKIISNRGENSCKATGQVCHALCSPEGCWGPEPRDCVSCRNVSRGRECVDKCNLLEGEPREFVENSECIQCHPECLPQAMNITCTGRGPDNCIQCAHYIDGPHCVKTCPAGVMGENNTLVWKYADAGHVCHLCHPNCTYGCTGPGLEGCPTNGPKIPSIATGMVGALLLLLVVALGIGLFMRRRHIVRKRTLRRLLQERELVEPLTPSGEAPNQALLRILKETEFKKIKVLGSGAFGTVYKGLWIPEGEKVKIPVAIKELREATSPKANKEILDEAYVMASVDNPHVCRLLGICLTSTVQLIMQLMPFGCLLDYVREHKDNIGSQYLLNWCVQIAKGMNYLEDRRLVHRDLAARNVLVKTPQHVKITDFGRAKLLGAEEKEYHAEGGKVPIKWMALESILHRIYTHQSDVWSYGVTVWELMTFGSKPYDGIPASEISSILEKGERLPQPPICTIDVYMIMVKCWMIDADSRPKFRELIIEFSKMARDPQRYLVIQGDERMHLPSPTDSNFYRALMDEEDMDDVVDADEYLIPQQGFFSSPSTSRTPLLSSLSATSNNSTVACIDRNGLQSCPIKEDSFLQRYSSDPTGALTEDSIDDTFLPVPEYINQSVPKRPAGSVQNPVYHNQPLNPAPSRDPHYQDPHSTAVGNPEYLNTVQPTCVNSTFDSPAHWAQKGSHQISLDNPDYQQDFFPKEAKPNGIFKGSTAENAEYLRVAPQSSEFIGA
Sequence of P70S6K1 (P23443 whole entry, species assumed): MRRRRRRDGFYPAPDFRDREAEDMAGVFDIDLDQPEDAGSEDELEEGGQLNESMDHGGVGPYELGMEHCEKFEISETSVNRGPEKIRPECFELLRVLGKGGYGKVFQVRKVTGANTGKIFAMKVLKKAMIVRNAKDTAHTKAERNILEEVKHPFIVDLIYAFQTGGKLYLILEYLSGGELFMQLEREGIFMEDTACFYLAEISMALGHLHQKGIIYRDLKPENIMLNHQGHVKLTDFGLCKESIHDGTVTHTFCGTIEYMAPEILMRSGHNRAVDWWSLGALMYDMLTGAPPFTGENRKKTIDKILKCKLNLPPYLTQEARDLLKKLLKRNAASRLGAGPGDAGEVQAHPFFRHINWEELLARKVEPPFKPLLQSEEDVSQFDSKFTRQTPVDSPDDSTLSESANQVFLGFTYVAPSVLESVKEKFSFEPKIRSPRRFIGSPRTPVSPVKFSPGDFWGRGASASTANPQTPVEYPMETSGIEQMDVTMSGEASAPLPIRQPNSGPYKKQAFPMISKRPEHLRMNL
T2 sequence (P21860 709-966 limits assumed): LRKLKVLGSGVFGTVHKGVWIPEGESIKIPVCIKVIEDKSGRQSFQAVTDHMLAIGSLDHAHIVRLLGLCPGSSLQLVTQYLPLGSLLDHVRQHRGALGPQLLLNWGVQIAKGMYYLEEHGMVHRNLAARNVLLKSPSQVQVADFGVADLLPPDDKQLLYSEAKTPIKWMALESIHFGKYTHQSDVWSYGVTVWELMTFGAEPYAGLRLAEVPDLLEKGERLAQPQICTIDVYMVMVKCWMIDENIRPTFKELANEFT
Sequence of mutationally activated forms of EGFR (P00533 with tags, fused parts or gaps DEL746-750): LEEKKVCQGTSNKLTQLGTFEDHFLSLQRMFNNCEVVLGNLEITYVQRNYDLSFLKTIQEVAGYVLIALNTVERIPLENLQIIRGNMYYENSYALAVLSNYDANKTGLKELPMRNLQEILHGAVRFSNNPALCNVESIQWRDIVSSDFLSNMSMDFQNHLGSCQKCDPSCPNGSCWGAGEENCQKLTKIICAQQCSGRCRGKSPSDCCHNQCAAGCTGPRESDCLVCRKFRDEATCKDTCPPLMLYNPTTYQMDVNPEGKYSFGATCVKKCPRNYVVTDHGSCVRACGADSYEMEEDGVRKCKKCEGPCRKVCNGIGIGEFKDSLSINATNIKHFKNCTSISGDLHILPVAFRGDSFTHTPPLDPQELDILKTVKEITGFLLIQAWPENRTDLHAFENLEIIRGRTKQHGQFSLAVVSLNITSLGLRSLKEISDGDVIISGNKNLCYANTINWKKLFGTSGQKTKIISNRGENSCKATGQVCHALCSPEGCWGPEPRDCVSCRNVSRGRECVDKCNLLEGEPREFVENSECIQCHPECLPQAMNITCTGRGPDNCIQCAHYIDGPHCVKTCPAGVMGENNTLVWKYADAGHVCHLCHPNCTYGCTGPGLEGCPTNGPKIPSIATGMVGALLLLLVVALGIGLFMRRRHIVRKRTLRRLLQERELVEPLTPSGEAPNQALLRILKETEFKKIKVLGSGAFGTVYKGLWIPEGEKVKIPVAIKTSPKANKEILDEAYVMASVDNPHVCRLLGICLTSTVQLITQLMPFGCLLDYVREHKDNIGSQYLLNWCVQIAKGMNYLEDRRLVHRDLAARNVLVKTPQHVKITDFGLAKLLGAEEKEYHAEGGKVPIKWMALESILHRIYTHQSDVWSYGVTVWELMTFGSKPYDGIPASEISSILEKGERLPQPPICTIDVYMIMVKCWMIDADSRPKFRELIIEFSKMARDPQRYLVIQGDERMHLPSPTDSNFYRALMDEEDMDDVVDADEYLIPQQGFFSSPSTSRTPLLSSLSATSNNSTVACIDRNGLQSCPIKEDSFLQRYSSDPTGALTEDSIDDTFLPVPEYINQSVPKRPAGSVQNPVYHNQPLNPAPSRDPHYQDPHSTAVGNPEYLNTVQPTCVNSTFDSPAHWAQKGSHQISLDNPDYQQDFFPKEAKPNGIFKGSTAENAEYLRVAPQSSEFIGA
Sequence of MAPK1 (P28482 whole entry, species assumed): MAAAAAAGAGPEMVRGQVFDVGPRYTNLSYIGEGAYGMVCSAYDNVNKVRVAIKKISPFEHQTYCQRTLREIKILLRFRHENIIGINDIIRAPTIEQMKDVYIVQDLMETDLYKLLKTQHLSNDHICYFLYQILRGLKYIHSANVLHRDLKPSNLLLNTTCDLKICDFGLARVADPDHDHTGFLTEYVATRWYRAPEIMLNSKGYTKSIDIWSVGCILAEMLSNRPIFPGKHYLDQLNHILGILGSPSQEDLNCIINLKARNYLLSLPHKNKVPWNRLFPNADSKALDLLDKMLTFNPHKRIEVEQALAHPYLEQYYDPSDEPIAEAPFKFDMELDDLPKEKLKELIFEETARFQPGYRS
Sequence of CDK1 (P06493 whole entry, species assumed): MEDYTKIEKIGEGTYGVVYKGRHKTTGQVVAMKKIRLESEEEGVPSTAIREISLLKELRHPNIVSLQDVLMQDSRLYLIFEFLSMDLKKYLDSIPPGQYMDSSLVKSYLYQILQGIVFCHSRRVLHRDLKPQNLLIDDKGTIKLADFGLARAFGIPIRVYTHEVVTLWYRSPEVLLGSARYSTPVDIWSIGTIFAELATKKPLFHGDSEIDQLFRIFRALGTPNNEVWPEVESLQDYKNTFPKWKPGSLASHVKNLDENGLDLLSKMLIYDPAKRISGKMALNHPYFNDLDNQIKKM
Sequence of CDK1 (P14635 whole entry partner, species assumed): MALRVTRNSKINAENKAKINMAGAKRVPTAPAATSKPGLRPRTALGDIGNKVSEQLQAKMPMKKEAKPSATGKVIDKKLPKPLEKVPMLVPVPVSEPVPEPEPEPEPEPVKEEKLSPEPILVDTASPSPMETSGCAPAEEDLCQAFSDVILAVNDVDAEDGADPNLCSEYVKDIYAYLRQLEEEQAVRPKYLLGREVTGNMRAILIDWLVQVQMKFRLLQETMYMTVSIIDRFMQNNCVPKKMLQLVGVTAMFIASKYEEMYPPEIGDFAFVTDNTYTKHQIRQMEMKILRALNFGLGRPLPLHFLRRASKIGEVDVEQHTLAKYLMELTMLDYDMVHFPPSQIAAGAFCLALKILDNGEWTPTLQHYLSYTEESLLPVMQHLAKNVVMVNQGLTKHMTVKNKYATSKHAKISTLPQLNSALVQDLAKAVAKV
T3 sequence (P04626 720-987 limits assumed): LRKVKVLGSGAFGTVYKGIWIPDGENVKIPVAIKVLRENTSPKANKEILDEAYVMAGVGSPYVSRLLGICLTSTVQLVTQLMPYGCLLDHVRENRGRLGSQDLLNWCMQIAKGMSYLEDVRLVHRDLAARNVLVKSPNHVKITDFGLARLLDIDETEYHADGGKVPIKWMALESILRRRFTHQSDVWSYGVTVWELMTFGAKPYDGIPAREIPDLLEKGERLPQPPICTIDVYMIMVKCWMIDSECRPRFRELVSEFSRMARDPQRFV

CS(=O)(=O)CCNCc1ccc(-c2ccc3ncnc(Nc4ccc(OCc5cccc(F)c5)c(Cl)c4)c3c2)o1 [lapatinib]
HER2/HER3 signaling +/- NRG [1]: NRG rescues HER2/HER3 signaling | inhibition of proliferation [2]: unable to inhibit the proliferation

COc1ccc(-c2ccoc2)cc1Nc1ncnc2[nH]cc(-c3cc[nH]n3)c12 [compound 3, N-(5-(furan-3-yl)-2-methoxyphenyl)-5-(1H-pyrazol-3-yl)-7H-pyrrolo[2,3-d]pyrimidin-4-amine]
inhibition at 1 µM [3]: -2% | inhibition at 1 µM [4]: 18% | inhibition of pHER3 and downstream signaling [5]: better able to inhibit pHER3 and its downstream signaling pathways | p-845 site inhibition at concentrations ([6]; EGFR gatekeeper methionine): less than 1 μM | effect of EGFR gatekeeper methionine mutation on inhibition ([6]; signaling and proliferation): caused a shift in the ability of compound 3 to inhibit both signaling and proliferation | reduction of cell growth (confluence) [7]: more effective at reducing the growth of CHL-1 cells | near complete inhibition of multiple phosphosites on EGFR [8]: less than 10 nM | inhibition of proliferation relative to current HER2 inhibitors [9]: more effective than current HER2 inhibitors

COc1ccc(-c2ccco2)cc1Nc1ncnc2[nH]nc(-c3ccco3)c12 [compound 2, 3-(furan-2-yl)-N-(5-(furan-2-yl)-2-methoxyphenyl)-1H-pyrazolo[3,4-d]pyrimidin-4-amine]
binding to HER3 [10]: capable of binding to HER3 | potency against HER2 in vitro [11]: equipotent to lapatinib | inhibition at 0.1 µM ([12]; compound at 100 nM): 8.88% | inhibition at 1 µM ([12]; compound at 1 μM): 38.4% | effect of gatekeeper mutation on binding affinity [13]: reduces the binding affinity
